Data: patent publication US10703757B2, “Compounds and methods for CDK8 modulation and indications therefor” (Plexxikon Inc., priority 2016, dated 2020)

System: CDK8 (phosphorylation of STAT1 at serine 727 in A549 cells)
Assay: Cell based Phospho-STAT1 assay (IFNγ-stimulated A549 cells, AlphaLISA)
Settings: Homo sapiens, A549, A549 cells, phospho-STAT1 after IFNγ stimulation
Description: Determine Inhibitor Activity Against CDK8 in Cell Based Phospho-STAT1 Assay
This assay measures the phosphorylation of the CDK8 substrate STAT1 following Interferon-gamma (IFNγ) stimulation^1. The lung carcinoma cell line A549 is seeded in a 96 well plate in 50 μL of culture media at 5×10^4 cells/well and incubated at 37° C. overnight. Serial dilutions of compounds (in total volume of 50 μL culture media) are added to the cells and incubated at 37° C. for one hour. Human IFNγ (R&D Systems) is added to the cells at a 10 ng/mL final concentration. 4 wells containing DMSO treated cells stimulated with IFNγ serve as high controls and 4 wells containing DMSO treated unstimulated cells serve as low controls. After 30 minute IFNγ stimulation at 37° C., the culture media is removed and 50 μL of 1×AlphaLISA lysis buffer (PerkinElmer GA, USA) is added to each well. 5 μL cell lysate is transferred to a 384 well AlphaPlate (PerkinElmer GA, USA) and 5 μL containing 0.156 nM Phospho-STAT1 (Ser727) rabbit monoclonal antibody (Cell Signaling Technology), 0.156 nM Mouse Anti-STAT1 antibody (BD Transduction Laboratories), and 10 μg/mL Anti-rabbit IgG AlphaLISA acceptor beads (PerkinElmer GA, USA) diluted in 1× AlphaLISA immunoassay buffer (PerkinElmer GA, USA) is added to the cell lysates and incubated at room temperature for 90 minutes. 5 μL Anti-Mouse IgG Alpha donor beads diluted in 1× AlphaLISA immunoassay buffer (PerkinElmer GA, USA) is added to the reaction mixture and incubated at room temperature for 90 minutes. Upon excitation of these beads with laser light at 680 nm, singlet oxygen is produced. This singlet oxygen is rapidly quenched, unless the AlphaLISA Anti-Rabbit IgG acceptor beads are in close proximity, in which case a proximity signal can be measured at […]. In the presence of cellular CDK8 catalytic activity, there is a very strong proximity signal. Selective CDK8 inhibitors affect a decrease in this proximity signal through a decrease in phosphorylation of STAT1 at serine 727. The percentage inhibition at individual concentrations relative to high and low controls is calculated. The data are analyzed by using nonlinear regression to generate IC50 values.

Compared with Cn1ncc2cc(-c3cnn4ccnc(N5CCC(C#N)CC5)c34)ccc21 [Compound P-0326, 1-[3-(1-methylindazol-5-yl)pyrazolo[1,5-a]pyrazin-4-yl]piperidine-4-carbonitrile], Cn1ncc2cc(-c3cnn4cccc(N5CCC(C)(C#N)CC5)c34)ccc21 [Compound P-0403, 4-methyl-1-(3-(1-methyl-1H-indazol-5-yl)pyrazolo[1,5-a]pyridin-4-yl)piperidine-4-carbonitrile] is lower in IC50: 1 to 10 µM for the first, 0.0001 to 0.1 µM for the second. The second is the more potent here.

First: CNC(=O)C1CC=C(c2cccc3ncc(-c4ccc(-c5cnn(C)c5)cc4)n23)CC1 (stereo not shown) [Compound P-0417, N-methyl-4-(3-(4-(1-methyl-1H-pyrazol-4-yl)phenyl)imidazo[1,2-a]pyridin-5-yl)cyclohex-3-ene-1-carboxamide]
Second: CCOC(=O)C1CC=C(c2cccc3ncc(-c4ccc(-c5cnn(C)c5)cc4)n23)CC1 (stereo not shown) [Compound P-0420, ethyl 4-(3-(4-(1-methyl-1H-pyrazol-4-yl)phenyl)imidazo[1,2-a]pyridin-5-yl)cyclohex-3-ene-1-carboxylate]
The IC50 of the first is lower: 0.1 to 1 µM for the first, 1 to 10 µM for the second. The first is the more potent here.

Compared with N#CC1CCN(c2c(-c3ccc4c(c3)OC(F)(F)O4)cnc3[nH]ccc23)CC1 [Compound P-0334, 1-(5-(2,2-difluorobenzo[d][1,3]dioxol-5-yl)-1H-pyrrolo[2,3-b]pyridin-4-yl)piperidine-4-carbonitrile], Cn1ncc2ccc(-c3cnc4[nH]ccc4c3C3=CCC(C#N)CC3)cc21 (stereo not shown) [Compound P-0340, 4-(5-(1-methyl-1H-indazol-6-yl)-1H-pyrrolo[2,3-b]pyridin-4-yl)cyclohex-3-ene-1-carbonitrile] is lower in IC50: 0.1 to 1 µM for the first, 0.0001 to 0.1 µM for the second. The second is the more potent here.

Cn1cc(-c2ccc(-c3cnc4cccc(N5CCC(C#N)(c6ccccc6)CC5)n34)cc2)cn1 [Compound P-0451, 1-(3-(4-(1-methyl-1H-pyrazol-4-yl)phenyl)imidazo[1,2-a]pyridin-5-yl)-4-phenylpiperidine-4-carbonitrile] and Cn1cc(-c2ccc(-c3cnc4cccc(N5CCC(C)(C#N)CC5)n34)cc2)cn1 [Compound P-0401, 4-methyl-1-(3-(4-(1-methyl-1H-pyrazol-4-yl)phenyl)imidazo[1,2-a]pyridin-5-yl)piperidine-4-carbonitrile] fall in the same range of IC50: 0.0001 to 0.1 µM for the first, 0.0001 to 0.1 µM for the second.

First: Cn1ncc2cc(-c3cnn4cccc(N5CCC(C#N)(c6ccccn6)CC5)c34)ccc21 [Compound P-0364, 1-(3-(1-methyl-1H-indazol-5-yl)pyrazolo[1,5-a]pyridin-4-yl)-4-(pyridin-2-yl)piperidine-4-carbonitrile]
Second: Cn1ncc2ccc(-c3cnn4cccc(N5CCC(C#N)(c6ccccn6)CC5)c34)cc21 [Compound P-0352, 1-(3-(1-methyl-1H-indazol-6-yl)pyrazolo[1,5-a]pyridin-4-yl)-4-(pyridin-2-yl)piperidine-4-carbonitrile]
The IC50 of the first is lower: 0.0001 to 0.1 µM for the first, 0.1 to 1 µM for the second. The first is the more potent here.

Cn1cc(-c2ccc(-c3cnc4cccc(NC5CCOCC5)n34)cc2)cn1 [Compound P-0388, 3-(4-(1-methyl-1H-pyrazol-4-yl)phenyl)-N-(tetrahydro-2H-pyran-4-yl)imidazo[1,2-a]pyridin-5-amine] and Cn1cc(-c2ccc(-c3cnc4cccc(OC5CCOCC5)n34)cc2)cn1 [Compound P-0427, 3-(4-(1-methyl-1H-pyrazol-4-yl)phenyl)-5-((tetrahydro-2H-pyran-4-yl)oxy)imidazo[1,2-a]pyridine] fall in the same range of IC50: 0.1 to 1 µM for the first, 0.1 to 1 µM for the second.

Cn1cc(C#Cc2cccn3ncc(-c4ccc(-c5cnn(C)c5)cc4)c23)cn1 [Compound P-0428, 4-((1-methyl-1H-pyrazol-4-yl)ethynyl)-3-(4-(1-methyl-1H-pyrazol-4-yl)phenyl)pyrazolo[1,5-a]pyridine] and Cn1cc(-c2ccc(-c3cnn4cccc(C#CC5(O)CCNCC5)c34)cc2)cn1 [Compound P-0338, 4-((3-(4-(1-methyl-1H-pyrazol-4-yl)phenyl)pyrazolo[1,5-a]pyridin-4-yl)ethynyl)piperidin-4-ol] fall in the same range of IC50: 0.1 to 1 µM for the first, 0.1 to 1 µM for the second.

Cn1cc(-c2ccc(-c3cnc4cccc(NCc5ccccc5)n34)cc2)cn1 [Compound P-0389, N-benzyl-3-(4-(1-methyl-1H-pyrazol-4-yl)phenyl)imidazo[1,2-a]pyridin-5-amine] and Cn1cc(-c2ccc(-c3cnc4cccc(NCc5cccnc5)n34)cc2)cn1 [Compound P-0377, 3-(4-(1-methyl-1H-pyrazol-4-yl)phenyl)-N-(pyridin-3-ylmethyl)imidazo[1,2-a]pyridin-5-amine] fall in the same range of IC50: 1 to 10 µM for the first, 1 to 10 µM for the second.

Cc1noc(-c2ccc(-c3cnn4cccc(N5CCC(C#N)(c6ccccn6)CC5)c34)cc2)n1 [Compound P-0351, 1-(3-(4-(3-methyl-1,2,4-oxadiazol-5-yl)phenyl)pyrazolo[1,5-a]pyridin-4-yl)-4-(pyridin-2-yl)piperidine-4-carbonitrile] and Cn1cc(-c2ccc(-c3cnn4cccc(C5=CCS(=O)(=O)CC5)c34)cc2)cn1 [Compound P-0300, 4-(3-(4-(1-methyl-1H-pyrazol-4-yl)phenyl)pyrazolo[1,5-a]pyridin-4-yl)-3,6-dihydro-2H-thiopyran 1,1-dioxide] fall in the same range of IC50: 0.1 to 1 µM for the first, 0.1 to 1 µM for the second.

First: CC(C)(C)n1ncc2cc(-c3cnc4[nH]ccc4c3C3=CCC(C#N)CC3)ccc21 (stereo not shown) [Compound P-0344, 4-(5-(1-(tert-butyl)-1H-indazol-5-yl)-1H-pyrrolo[2,3-b]pyridin-4-yl)cyclohex-3-ene-1-carbonitrile]
Second: Cn1ncc2cc(-c3cnc4[nH]ccc4c3C3=CCC(C(N)=O)CC3)ccc21 (stereo not shown) [Compound P-0335, 4-(5-(1-methyl-1H-indazol-5-yl)-1H-pyrrolo[2,3-b]pyridin-4-yl)cyclohex-3-ene-1-carboxamide]
The IC50 of the first is higher: 0.1 to 1 µM for the first, 0.0001 to 0.1 µM for the second.

Cc1noc(C)c1-c1ccc(-c2cnn3cccc(C#CC(C)(C)O)c23)cc1 [Compound P-0227, 4-(3-(4-(3,5-dimethylisoxazol-4-yl)phenyl)pyrazolo[1,5-a]pyridin-4-yl)-2-methylbut-3-yn-2-ol] and Cc1nn(C)c(C)c1-c1ccc(-c2cnn3cccc(C#CC(C)(C)O)c23)cc1 [Compound P-0236, 2-methyl-4-(3-(4-(1,3,5-trimethyl-1H-pyrazol-4-yl)phenyl)pyrazolo[1,5-a]pyridin-4-yl)but-3-yn-2-ol] fall in the same range of IC50: 1 to 10 µM for the first, 1 to 10 µM for the second.

First: CC(C)(C#N)COc1cccc2ncc(-c3ccc(-c4cnn(C(F)F)c4)cc3)n12 [Compound P-0355, 3-((3-(4-(1-(difluoromethyl)-1H-pyrazol-4-yl)phenyl)imidazo[1,2-a]pyridin-5-yl)oxy)-2,2-dimethylpropanenitrile]
Second: O=C1Nc2ccccc2C12CCN(c1cccc3ncc(-c4ccc(-c5cnn(C(F)F)c5)cc4)n13)CC2 [Compound P-0441, 1′-(3-(4-(1-(difluoromethyl)-1H-pyrazol-4-yl)phenyl)imidazo[1,2-a]pyridin-5-yl)spiro[indoline-3,4′-piperidin]-2-one]
The IC50 of the first is higher: 0.1 to 1 µM for the first, 0.0001 to 0.1 µM for the second.

First: Cn1cc(-c2ccc(-c3cnc4cccc(C5=CCN(S(C)(=O)=O)CC5)n34)cc2)cn1 [Compound P-0419, 3-(4-(1-methyl-1H-pyrazol-4-yl)phenyl)-5-(1-(methylsulfonyl)-1,2,3,6-tetrahydropyridin-4-yl)imidazo[1,2-a]pyridine]
Second: Cn1cc(-c2ccc(-c3cnc4cccc(N5CCN(c6cccnc6)CC5)n34)cc2)cn1 [Compound P-0386, 3-(4-(1-methyl-1H-pyrazol-4-yl)phenyl)-5-(4-(pyridin-3-yl)piperazin-1-yl)imidazo[1,2-a]pyridine]
The IC50 of the first is higher: 0.1 to 1 µM for the first, 0.0001 to 0.1 µM for the second. The second is the more potent here.

Compared with Cn1ncc2cc(-c3cnc4cccc(C5=CCC(C#N)CC5)n34)ccc21 (stereo not shown) [Compound P-0367, 4-(3-(1-methyl-1H-indazol-5-yl)imidazo[1,2-a]pyridin-5-yl)cyclohex-3-ene-1-carbonitrile], NC(=O)C1CC=C(c2cccc3ncc(-c4ccc(OCCN5CCCCC5)cc4)n23)CC1 (stereo not shown) [Compound P-0369, 4-(3-(4-(2-(piperidin-1-yl)ethoxy)phenyl)imidazo[1,2-a]pyridin-5-yl)cyclohex-3-ene-1-carboxamide] is higher in IC50: 0.0001 to 0.1 µM for the first, 1 to 10 µM for the second.

Cn1cc(-c2ccc(-c3cnn4cccc(C5CCC(C#N)CC5)c34)cc2)cn1 (stereo not shown) [Compound P-0347, 4-(3-(4-(1-methyl-1H-pyrazol-4-yl)phenyl)pyrazolo[1,5-a]pyridin-4-yl)cyclohexane-1-carbonitrile] and N#CC1CCC(c2cccn3ncc(-c4ccc(-c5cnn(C(F)F)c5)cc4)c23)CC1 (stereo not shown) [Compound P-0346, 4-(3-(4-(1-(difluoromethyl)-1H-pyrazol-4-yl)phenyl)pyrazolo[1,5-a]pyridin-4-yl)cyclohexane-1-carbonitrile] fall in the same range of IC50: 0.1 to 1 µM for the first, 0.1 to 1 µM for the second.

CN1CCN(C(=O)c2ccc3cc(-c4cnn5cccc(C6=CCC(C#N)CC6)c45)ccc3c2)CC1 (stereo not shown) [Compound P-0356, 4-(3-(6-(4-methylpiperazine-1-carbonyl)naphthalen-2-yl)pyrazolo[1,5-a]pyridin-4-yl)cyclohex-3-ene-1-carbonitrile] gave an IC50 of 0.0001 to 0.1 µM.
